The nature of data set [1]: Caco-2 membrane permeability and efflux rate. The format is in vitro ADME. The following applies: human, Caco-2, Caco-2, 5 μM; for Papp B→A at 2 h, 5 μM: basal end to top end; for efflux ratio at 2 h, 5 μM: read-out: ER (efflux rate); for Papp A→B at 2 h, 5 μM: top end to basal end. The method, boiled down:
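Caco-2 monolayers after 14-18 days' culture; compound at 5 μM final in HBSS (10 mM HEPES, pH 7.4), apical-to-basal and basal-to-apical, 2 h at 37° C. LC/MS/MS gives Papp (10-6 cm/s) and efflux ratio; lucifer yellow checks monolayer integrity.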
Background: Passage across Caco-2 layers is used to estimate intestinal permeability.

For a further data set, the target named is CDK2/cyclinE1 complex (Homo sapiens, UniProt P24941). Nature of the data set: In-vitro enzymatic inhibitory activity testing, CDK2 inhibition assay (Caliper EZ Reader II). The settings on record: CDK2/cyclinE1 0.5 nM, 180 min at 27° C. The format is biochemical. The method, boiled down: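 CDK2/cyclinE1 (0.5 nM) phosphorylated 5-FAM-CDK7tide (2 μM) in MES buffer pH 6.5 with MgCl2, Tween 20 and BSA. Substrate and product were separated electrophoretically on a Caliper EZ Reader II. IC50 values came from nonlinear dose-response fits.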

Another data set deals with ovarian cancer A2780. The data set is described as follows: Cell biological activity detection (CyQuant, 72 hours), A2780. The format is cell-based, human. The following applies: Homo sapiens, A2780, 72 h, A2780 cells, incubation for 72 hours. In outline:
(§1)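 A2780 and HCC70 cells seeded at 2000/well in RPMI 1640 + 10% FBS, treated next day with 9-point compound dilutions (top 10 μM, 1:4; 0.2% DMSO) for 72 h at 37 °C. Cell number read by CyQuant Direct nucleic acid stain (ex 488 nm); IC50 from dose–response fit.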

Data set [2] has as its system human breast cancer cells HCC70. The data set is described as follows: Cell biological activity detection (CyQuant, 72 hours), HCC70. The format is cell-based. The following applies: Homo sapiens, HCC70, 72 h, incubation for 72 hours. In outline: as §1
The target of data set [3] is CDK7/cyclinH/MAT1 complex (Homo sapiens, UniProt P50613). The data set is described as follows: In-vitro enzymatic inhibitory activity testing, CDK7 inhibition assay (Caliper EZ Reader II). The format is biochemical. The following applies: CDK7/cyclinH/MAT1 6 nM, 180 min at 27° C. In outline: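 Enzyme preincubated 10 min with compound, then peptide substrate plus ATP added in 80 mM MES pH 6.5, 10 mM MgCl2 buffer; 180 min at 27 °C, stopped with EDTA.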
CDK7/cyclinH/MAT1 complex, sequence (P50613 whole entry, species assumed): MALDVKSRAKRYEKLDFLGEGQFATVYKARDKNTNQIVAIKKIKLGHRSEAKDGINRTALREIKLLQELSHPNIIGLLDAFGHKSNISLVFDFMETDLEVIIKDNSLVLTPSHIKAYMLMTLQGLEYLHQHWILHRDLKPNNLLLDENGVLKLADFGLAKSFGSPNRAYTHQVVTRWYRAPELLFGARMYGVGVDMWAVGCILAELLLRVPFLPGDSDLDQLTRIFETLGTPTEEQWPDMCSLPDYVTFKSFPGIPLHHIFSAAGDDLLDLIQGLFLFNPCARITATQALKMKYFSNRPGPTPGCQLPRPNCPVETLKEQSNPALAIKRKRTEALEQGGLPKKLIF
CDK7/cyclinH/MAT1 complex, sequence (P51946 whole entry partner, species assumed): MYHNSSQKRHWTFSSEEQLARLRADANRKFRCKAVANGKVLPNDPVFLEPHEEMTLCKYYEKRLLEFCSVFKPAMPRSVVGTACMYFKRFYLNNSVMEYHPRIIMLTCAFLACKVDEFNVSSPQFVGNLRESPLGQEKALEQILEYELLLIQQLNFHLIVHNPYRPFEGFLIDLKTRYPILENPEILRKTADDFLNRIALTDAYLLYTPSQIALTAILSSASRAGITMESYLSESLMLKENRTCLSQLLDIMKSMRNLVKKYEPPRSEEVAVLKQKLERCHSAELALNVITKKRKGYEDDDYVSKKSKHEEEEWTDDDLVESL
CDK7/cyclinH/MAT1 complex, sequence (P51948 whole entry partner, species assumed): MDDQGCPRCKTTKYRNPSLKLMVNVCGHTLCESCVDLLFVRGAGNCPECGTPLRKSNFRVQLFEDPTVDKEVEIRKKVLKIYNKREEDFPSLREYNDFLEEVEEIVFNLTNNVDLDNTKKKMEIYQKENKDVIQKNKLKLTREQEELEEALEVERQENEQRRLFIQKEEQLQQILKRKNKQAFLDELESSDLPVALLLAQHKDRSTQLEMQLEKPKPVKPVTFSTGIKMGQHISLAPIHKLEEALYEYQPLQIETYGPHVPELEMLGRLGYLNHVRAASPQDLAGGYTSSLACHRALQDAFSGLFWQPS

Here are results for 7 molecules from patent US20240124504A1, “AROMATIC HETEROCYCLIC COMPOUND, AND PHARMACEUTICAL COMPOSITION AND APPLICATION THEREOF” (GT APEIRON THERAPEUTICS LIMITED, priority 2020, published 2024).

SMILES strings stand for the structures.

As a reminder, the Papp B→A is the apparent permeability from the basolateral to the apical side of a cell layer. Broadly, the Papp A→B is how fast a substance crosses the layer from the apical side. A low value points to poor permeation. As a reminder, the IC50 is the midpoint of a concentration-inhibition curve.

For the molecule `CP(C)(=O)c1cccc2c(-c3nc(NC4(CO)CC(F)(F)C4)ncc3C(F)(F)F)c[nH]c12` [Compound 96, (3-(2-((3,3-difluoro-1-(hydroxymethyl)cyclobutyl)amino)-5-(trifluoromethyl)pyrimidin-4-yl)-1H-indole-7-yl)dimethylphosphine oxide], the basolateral-to-apical permeability (Papp B→A) at 2 h, 5 μM in data set [1] came out at 26.1 ×10⁻⁶ cm/s. The efflux ratio at 2 h, 5 μM in data set [1] was determined as 14.1. For the same molecule, the Papp A→B at 2 h, 5 μM in data set [1] came to 1.86 ×10⁻⁶ cm/s. For the same molecule, the concentration for half-maximal inhibition (IC50) against CDK2/cyclinE1 complex was 5000 to 50000 nM; in the data set on ovarian cancer A2780 it was < 20 nM; in data set [2], < 20 nM; in data set [3], 20 to 200 nM.
In turn, `CP(C)(=O)c1cccc2c(-c3nc(NC4(CO)CC4)ncc3C(F)(F)F)c[nH]c12` [Compound 94, (3-(2-((1-(hydroxymethyl)cyclopropyl)amino)-5-(trifluoromethyl)pyrimidin-4-yl)-1H-indole-7-yl)dimethylphosphine oxide] yielded a Papp B→A at 2 h, 5 μM in data set [1] of 31.4 ×10⁻⁶ cm/s. The efflux ratio at 2 h, 5 μM in data set [1] turned out to be 12.5. Also, the Papp A→B at 2 h, 5 μM in data set [1] was 2.51 ×10⁻⁶ cm/s. The IC50 on CDK2/cyclinE1 complex was 5000 to 50000 nM; in the data set with ovarian cancer A2780, < 20 nM; in data set [2], 20 to 200 nM; in data set [3] it was 20 to 200 nM.
In turn, `CP(C)(=O)c1cccc2c(-c3nc(N[C@@H]4CCC[C@H]4O)ncc3C(F)(F)F)c[nH]c12` [Compound 156] displayed a basolateral-to-apical permeability (Papp B→A) at 2 h, 5 μM in data set [1] of 20.6 ×10⁻⁶ cm/s. Also, the efflux ratio at 2 h, 5 μM in data set [1] was found to be 3.87. The molecule further showed an apparent permeability from apical to basolateral (Papp A→B) at 2 h, 5 μM in data set [1] of 5.32 ×10⁻⁶ cm/s. The IC50 on CDK2/cyclinE1 complex was 5000 to 50000 nM; in the data set with ovarian cancer A2780, 20 to 200 nM; in data set [2], < 20 nM; in data set [3] it was 20 to 200 nM.
In data set [1], `CC(O)[C@H](C)Nc1ncc(C(F)(F)F)c(-c2c[nH]c3c(P(C)(C)=O)cccc23)n1` (single isomer, unassigned) [Compound 129] showed a Papp B→A at 2 h, 5 μM of 32.4 ×10⁻⁶ cm/s. In addition, the efflux ratio at 2 h, 5 μM in data set [1] amounted to 6.76. Also, the Papp A→B at 2 h, 5 μM in data set [1] worked out at 4.8 ×10⁻⁶ cm/s. For the same molecule, the IC50 at CDK2/cyclinE1 complex is 5000 to 50000 nM; in the data set with ovarian cancer A2780, 20 to 200 nM; in data set [2], 20 to 200 nM; in data set [3], < 20 nM.
As to `C[C@@H](CO)Nc1ncc(C#N)c(-c2c[nH]c3c(P(C)(C)=O)cccc23)n1` [Compound 179, (S)-4-(7-(dimethylphosphoryl)-1H-indole-3-yl)-2-((1-hydroxypropan-2-yl)amino)pyrimidine-5-carbonitrile], the apparent permeability from basolateral to apical (Papp B→A) at 2 h, 5 μM in data set [1] came out at 33.5 ×10⁻⁶ cm/s. For the same molecule, in data set [1], the efflux ratio at 2 h, 5 μM turned out to be 65.9. The molecule also showed an apparent permeability from apical to basolateral (Papp A→B) at 2 h, 5 μM in data set [1] of 0.51 ×10⁻⁶ cm/s. The IC50 was 200 to 5000 nM against CDK2/cyclinE1 complex, 20 to 200 nM with ovarian cancer A2780, 20 to 200 nM in data set [2] and < 20 nM in data set [3].
Molecule `CC[C@@H](CO)Nc1ncc(C(F)(F)F)c(-c2c[nH]c3c(P(C)(C)=O)cccc23)n1` [Compound 88, (S)-(3-(2-((1-hydroxybutan-2-yl)amino)-5-(trifluoromethyl)pyrimidin-4-yl)-1H-indole-7-yl)dimethylphosphine oxide] displayed a Papp B→A at 2 h, 5 μM in data set [1] of 29.2 ×10⁻⁶ cm/s. The efflux ratio at 2 h, 5 μM in data set [1] was determined as 7.77. The same molecule displayed an apical-to-basolateral permeability (Papp A→B) at 2 h, 5 μM in data set [1] of 3.76 ×10⁻⁶ cm/s. Moreover, the IC50 on CDK2/cyclinE1 complex is 200 to 5000 nM; in the data set on ovarian cancer A2780, < 20 nM; in data set [2] it was 20 to 200 nM; in data set [3], < 20 nM.
With `CP(C)(=O)c1cccc2c(-c3nc(NC4(CO)CC(F)C4)ncc3C(F)(F)F)c[nH]c12` (stereo not shown) [Compound 105, (3-(2-((3-fluoro-1-(hydroxymethyl)cyclobutyl)amino)-5-(trifluoromethyl)pyrimidin-4-yl)-1H-indole-7-yl)dimethylphosphine oxide], in data set [1], the Papp B→A at 2 h, 5 μM came out at 21.9 ×10⁻⁶ cm/s. Also, the efflux ratio at 2 h, 5 μM in data set [1] was determined as 7.32. The same molecule gave an apical-to-basolateral permeability (Papp A→B) at 2 h, 5 μM in data set [1] of 2.99 ×10⁻⁶ cm/s. Moreover, the IC50 was 5000 to 50000 nM on CDK2/cyclinE1 complex, 20 to 200 nM with ovarian cancer A2780, 20 to 200 nM in data set [2] and 20 to 200 nM in data set [3].
